In data set [1] the test system is Human peripheral blood mononuclear cells. The experiment in a line: Human Concanavalin-A Proliferation Assay (Con HU Assay). It counts as cell-based. The conditions noted are these: Homo sapiens, PBMC, concanavalin-A stimulated human PBMC; for inhibition at 100 µM: concentration 100 μm (in parentheses in the cell); for IC50: tritiated thymidine. In a few lines:
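Histopaque-isolated human PBMC (50,000/well) were pre-incubated 15 min with compounds, then stimulated with concanavalin-A at 2.5 μg/ml final for 3 days at 37 °C, 5% CO2. Proliferation measured by 6 h pulse with 0.5 μCi/well [3H]thymidine and beta counting.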

Where [2] appears, read: 72 h, 3 days, read-out: % Inhibition of proliferation (at concentrations of 1,10, or 100 μm).

By melting point is commonly meant the temperature of the solid-liquid transition. Broadly, the IC50 is the midpoint of a concentration-inhibition curve. Low readings indicate greater potency, high ones weaker potency. `O=C(Nc1ccc(-n2nc(C(F)(F)F)cc2C(F)(F)F)cc1)c1ccc(F)cc1` [Example 90, N-[4-[3,5-bis(trifluoromethyl)-1H-pyrazol-1-yl]phenyl]-4-fluorobenzamide]: the melting point was 184 to 186 °C. The inhibition at 100 µM in data set [1] (setting [2]) is 98%. Besides, the midpoint of inhibition in data set [1], the IC50, lay at 144 nM.
The corresponding values for `O=C(Nc1ccc(-n2nc(C(F)(F)F)cc2C(F)(F)F)cc1)c1ccccc1Cl` [Example 91, N-[4-[3,5-bis(trifluoromethyl)-1H-pyrazol-1-yl]phenyl]-2-chlorobenzamide] are 155 to 157 °C, 99% and 138 nM.
The corresponding values for `O=C(Nc1ccc(-n2nc(C(F)(F)F)cc2C(F)(F)F)cc1)c1ccccc1` [Example 92, N-[4-[3,5-bis(trifluoromethyl)-1H-pyrazol-1-yl]phenyl]benzamide] are 177 to 178 °C, 92% and 673 nM.
The corresponding values for `O=C(Nc1ccc(-n2nc(C(F)(F)F)cc2C(F)(F)F)cc1)c1ccc([N+](=O)[O-])cc1` [Example 93, N-[4-[3,5-bis(trifluoromethyl)-1H-pyrazol-1-yl]phenyl]-4-nitrobenzamide] are 185 to 188 °C, 100% and 365 nM.
For `Fc1ccc(NCc2ccc(-n3nc(C(F)(F)F)cc3C(F)(F)F)cc2)cc1` [Example 94, 4-[3,5-Bis(trifluoromethyl)-1H-pyrazol-1-yl]-N-(4-fluorophenyl)benzenemethanamine], the melting point was in the range of 102 to 103 °C. The inhibition at 10 µM in data set [1] (72 h, concentration 10 μm (in parentheses in the cell), 3 days, read-out: % Inhibition of proliferation (at concentrations of 1,10, or 100 μm)) came to 3%.
Turning to `Cc1ccccc1C(=O)Nc1ccc(-n2nc(C(F)(F)F)cc2C(F)(F)F)cc1` [Example 96, N-[4-[3,5-bis(trifluoromethyl)-1H-pyrazol-1-yl]phenyl]-2-methylbenzamide], the melting point fell in the range of 165 to 167 °C. Moreover, the inhibition at 100 µM in data set [1] (setting [2]) came out at 99%. The IC50 in data set [1] came to 338 nM.
The corresponding values for `Cc1ccc(C(=O)Nc2ccc(-n3nc(C(F)(F)F)cc3C(F)(F)F)cc2)cc1` [Example 100, N-[4-[3,5-bis (trifluoromethyl)-1H-pyrazol-1-yl]phenyl]-4-methylbenzamide] are 225 to 226 °C, 75% and 2150 nM.
The corresponding values for `O=C(Nc1ccc(-n2nc(C(F)(F)F)cc2C(F)(F)F)cc1)c1cccc(C(F)(F)F)c1` [Example 101, N-[4-[3,5-bis(trifluoromethyl)-1H-pyrazol-1-yl]phenyl]-3-(trifluoromethyl)benzamide] are 143 to 145 °C, 100% and 2230 nM.
In the same order, the values of `CC(C)=CC(=O)Nc1ccc(-n2nc(C(F)(F)F)cc2C(F)(F)F)cc1` [Example 102, N-[4-[3,5-bis(trifluoromethyl)-1H-pyrazol-1-yl]phenyl]-3-methyl-2-butenamide] are 150 to 152 °C, 100% and 503 nM.
`O=C(Nc1ccc(-n2nc(C(F)(F)F)cc2C(F)(F)F)cc1)c1ccccc1O` [Example 103, N-[4-[3,5-bis(trifluoromethyl)-1H-pyrazol-1-yl]phenyl]-2-hydroxybenzamide] came in with a melting point of 173 to 175 °C. The inhibition at 1 µM in data set [1] (72 h, concentration 1 μm (in parentheses in the cell), 3 days, read-out: % Inhibition of proliferation (at concentrations of 1,10, or 100 μm)) was found to be 14%.
As to `O=C(Nc1ccc(-n2nc(C(F)(F)F)cc2C(F)(F)F)cc1)c1cccc(O)c1` [Example 104, N-[4-[3,5-bis(trifluoromethyl)-1H-pyrazol-1-yl]phenyl]-3-hydroxybenzamide], the melting point was 221 to 223 °C. Moreover, the inhibition at 100 µM in data set [1] (setting [2]) amounted to 99%. In addition, in data set [1], the IC50 was found to be 394 nM.

The record behind these values is patent US20010044445A1, “AZOLE INHIBITORS OF CYTOKINE PRODUCTION” (priority 1999, published 2001).
